Measured values reported in the supplement of paper PMC10307832.

How the values were obtained:
Experiment in all cases: relative viability (nuclei count vs DMSO), 5 days (fraction); higher = more cells survive
[1] = compound: C1/C(=C\C2=CC=CS2)/C(=O)/C(=C/C3=CC=CS3)/C1 + COc1cc2c(Oc3ccc(NC(=O)C4(C(=O)Nc5ccc(F)cc5)CC4)cc3F)ccnc2cc1OCCCN1CCOCC1 [Foretinib] (partner 0.25 µM)
In short: (§1)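 Lung cancer cell lines, seeded in 1536-well plates, were treated the following day by pin tool with a single drug or with five library-drug doses (not always all listed) in √10 steps on top of a fixed anchor-drug dose. Cells were fixed and nuclei stained in one step after 5 days, and nuclei were counted. Relative viability is the nuclei count for treated wells divided by that for vehicle wells, reported as medians of duplicate plates.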

[2] = compound: C1/C(=C\C2=CC=CS2)/C(=O)/C(=C/C3=CC=CS3)/C1 + CS(=O)(=O)CCNCc1ccc(-c2ccc3ncnc(Nc4ccc(OCc5cccc(F)c5)c(Cl)c4)c3c2)o1 [Lapatinib] (partner 2 µM)
In short: as §1

[3] = compound: C1=CC(=CC=C1C2=CC(=C(S2)NC(=O)N)C(=O)N)F [TPCA-1] + Cc1cc(Nc2cc(N3CCN(C)CC3)nc(Sc3ccc(NC(=O)C4CC4)cc3)n2)n[nH]1 [Tozasertib] (partner 0.1 µM)
In short: as §1

[4] = compound: C1=CC(=CC=C1C2=CC(=C(S2)NC(=O)N)C(=O)N)F [TPCA-1] + Nc1ncn([C@H]2C[C@H](O)[C@@H](CO)O2)c(=O)n1 [Decitabine] (partner 2 µM)
In short: as §1

Cell Line | relative viability ([1]; first compound 0.2 µM) | relative viability ([1]; first compound 0.6325 µM) | relative viability ([1]; first compound 2 µM) | relative viability ([1]; first compound 6.325 µM) | relative viability ([1]; first compound 20 µM) | relative viability ([2]; first compound 0.2 µM) | relative viability ([2]; first compound 0.6325 µM) | relative viability ([2]; first compound 2 µM) | relative viability ([2]; first compound 6.325 µM) | relative viability ([2]; first compound 20 µM) | relative viability ([3]; first compound 0.04 µM) | relative viability ([3]; first compound 0.1265 µM) | relative viability ([3]; first compound 0.4 µM) | relative viability ([3]; first compound 1.265 µM) | relative viability ([3]; first compound 4 µM) | relative viability ([4]; first compound 0.04 µM) | relative viability ([4]; first compound 0.1265 µM) | relative viability ([4]; first compound 0.4 µM) | relative viability ([4]; first compound 1.265 µM) | relative viability ([4]; first compound 4 µM)
NCI-H1437 | 1.31 | 1.3 | 1.25 | 1.1 | 1.23 | 0.751 | 0.788 | 0.791 | 0.748 | 0.692 | 0.434 | 0.39 | 0.42 | 0.385 | 0.372 | 0.601 | 0.566 | 0.572 | 0.566 | 0.669
NCI-H1650 | 1.15 | 1.16 | 1.41 | 1.12 | 1.18 | 0.654 | 0.735 | 0.961 | 0.748 | 0.803 | 0.386 | – | 0.459 | 0.339 | 0.257 | 0.424 | 0.42 | 0.433 | 0.382 | 0.397
NCI-H1651 | 0.797 | 0.815 | 0.785 | 0.671 | 0.692 | 0.81 | 0.93 | 0.793 | – | 0.769 | 0.678 | 0.646 | 0.794 | 0.652 | 0.521 | 0.66 | 0.578 | 0.578 | 0.546 | 0.217
NCI-H1666 | 0.99 | 1.01 | 0.965 | 0.865 | 0.958 | 0.633 | 0.59 | 0.565 | 0.561 | 0.614 | 0.627 | 0.598 | 0.635 | 0.543 | 0.461 | 0.711 | 0.607 | 0.743 | 0.695 | 0.707
NCI-H1734 | 0.805 | 0.939 | 0.92 | 0.797 | 0.818 | 1.02 | 1.05 | 1.17 | 0.906 | 1.09 | 0.272 | 0.29 | 0.266 | 0.264 | 0.264 | 0.58 | 0.468 | 0.531 | 0.517 | 0.454
NCI-H1755 | 0.931 | 0.959 | 1.01 | 0.817 | 0.928 | 1.07 | 1.03 | 1.09 | 0.882 | 0.993 | 0.57 | 0.526 | 0.52 | 0.511 | 0.374 | 0.649 | 0.709 | 0.709 | 0.688 | 0.67
NCI-H1793 | 0.754 | 0.629 | 0.783 | 0.579 | 0.625 | 0.913 | 0.611 | 0.86 | 0.519 | 0.674 | 0.33 | – | 0.307 | 0.235 | 0.165 | 0.495 | 0.429 | 0.492 | 0.451 | 0.384
NCI-H1915 | 1.09 | 1.1 | 1.01 | 1.07 | 1.1 | 0.984 | 0.996 | 0.964 | 0.937 | 1.03 | 0.435 | 0.428 | 0.435 | 0.362 | 0.229 | 0.266 | 0.253 | 0.258 | 0.255 | 0.251
NCI-H1944 | 0.918 | 0.828 | 0.89 | 0.844 | 0.859 | 0.735 | 0.695 | 0.864 | 0.782 | 0.748 | 0.239 | 0.252 | 0.239 | 0.247 | 0.208 | 0.526 | 0.446 | 0.477 | 0.475 | 0.383
NCI-H1975 | 0.971 | 0.979 | – | 0.771 | 0.895 | 1.01 | 0.789 | 0.966 | 0.613 | 0.823 | 0.796 | 0.697 | 0.737 | 0.407 | 0.312 | 0.393 | 0.343 | 0.403 | 0.387 | 0.188
NCI-H1993 | 0.748 | 0.751 | 0.75 | 0.572 | 0.745 | 0.815 | 0.783 | 0.731 | 0.685 | 0.781 | 0.573 | 0.562 | 0.655 | 0.606 | 0.559 | 0.604 | 0.541 | 0.541 | 0.584 | 0.508
NCI-H2009 | 1.31 | 1.23 | 1.2 | 1.2 | 1.21 | 0.882 | 0.872 | 1.02 | 0.868 | 0.917 | 0.8 | 0.686 | 0.834 | 0.649 | 0.545 | 0.412 | 0.392 | 0.377 | 0.423 | 0.392
NCI-H2023 | – | 0.949 | 0.998 | 0.82 | 1.05 | 0.877 | 0.87 | 0.889 | 0.734 | 0.67 | 0.357 | 0.282 | 0.335 | 0.15 | 0.0965 | 0.256 | 0.195 | 0.228 | 0.227 | 0.182
NCI-H2085 | 1.09 | 1.05 | 0.984 | 0.927 | 0.883 | 0.876 | 0.768 | 0.876 | 0.692 | 0.701 | 0.863 | 0.72 | 0.746 | 0.735 | 0.479 | – | 0.531 | 0.618 | 0.579 | 0.665
NCI-H2087 | 1.26 | 1.28 | 1.15 | 1.17 | 1.13 | 0.866 | 0.825 | 1.08 | 0.894 | 1.09 | 0.243 | 0.239 | 0.28 | 0.2 | 0.116 | 0.255 | 0.222 | 0.311 | 0.335 | 0.152
NCI-H2126 | 1.38 | 0.985 | 1.3 | 1.08 | 1.08 | 0.774 | 0.751 | 0.787 | 0.691 | 0.745 | 0.877 | 0.768 | 0.886 | 0.829 | 0.338 | 0.582 | 0.577 | 0.632 | 0.614 | 0.514
NCI-H2170 | 1.02 | 0.99 | 1.02 | 0.887 | 1.03 | 0.301 | 0.255 | 0.282 | 0.232 | 0.283 | 0.731 | 0.644 | 0.718 | 0.66 | 0.387 | 0.493 | 0.433 | 0.444 | 0.453 | 0.385
NCI-H2347 | 0.703 | 1.1 | 1.08 | 0.729 | 1.03 | 1.03 | 0.977 | 0.901 | 0.898 | 0.915 | 0.527 | 0.52 | 0.454 | 0.599 | 0.336 | 0.578 | 0.551 | 0.664 | 0.641 | 0.619
NCI-H2405 | 1.11 | 1.03 | 1.17 | 0.948 | 1.12 | 1.12 | 1.07 | 1.33 | 0.887 | 1.14 | 0.753 | 0.75 | 0.765 | 0.754 | 0.555 | 0.823 | 0.664 | 0.748 | 0.712 | 0.717
NCI-H3122 | 1.01 | 0.934 | 1 | 0.81 | 0.846 | 1 | 1.06 | 1.04 | 0.877 | 0.995 | 0.465 | 0.37 | 0.463 | 0.329 | 0.268 | 0.424 | 0.404 | 0.424 | 0.496 | 0.455
PC-3 [JPC-3] | 1.11 | 1.05 | 1.01 | 0.865 | 1.11 | 0.445 | 0.406 | 0.512 | 0.461 | 0.446 | 0.869 | 0.874 | 0.892 | 0.848 | 0.545 | 0.862 | 0.916 | 0.838 | 0.813 | 0.818
PC-14 | 0.942 | 0.932 | 0.937 | 0.847 | 0.885 | 0.352 | 0.362 | 0.353 | 0.293 | 0.27 | 0.587 | 0.55 | 0.58 | 0.585 | 0.28 | 0.265 | 0.24 | 0.231 | 0.255 | 0.323
RERF-LC-KJ | 0.932 | 0.929 | 0.866 | 0.985 | 0.808 | 0.915 | 0.943 | 0.827 | 0.893 | 0.764 | 0.556 | 0.518 | 0.61 | 0.43 | 0.29 | 0.715 | 0.598 | 0.656 | 0.612 | 0.548
SK-LU-1 | 0.846 | 0.85 | 0.937 | 0.795 | 0.831 | 0.91 | 0.787 | 0.846 | 0.721 | 0.922 | 0.333 | 0.297 | 0.309 | 0.253 | 0.248 | 0.72 | 0.563 | 0.627 | 0.493 | 0.372
SK-MES-1 | 0.949 | 1 | 0.925 | 0.701 | 0.848 | 0.498 | 0.45 | 0.486 | 0.322 | 0.395 | 0.866 | 0.82 | 0.933 | 0.728 | 0.24 | 0.39 | 0.348 | 0.37 | 0.342 | 0.321
SW 1573 | 0.879 | 0.965 | 0.939 | 0.843 | 0.825 | 1.07 | 1.15 | 1.17 | 1.09 | 1.03 | 0.189 | 0.162 | 0.181 | 0.132 | 0.135 | 0.621 | 0.402 | 0.438 | 0.677 | 0.395
